Consider 20 compounds from ChEMBL document CHEMBL1155842, “Imidazole piperazines: SAR and development of a potent class of cyclin-dependent kinase inhibitors with a novel binding mode” (Bioorg Med Chem Lett, 2008).

For orientation: pIC50 means the IC50 on a negative log10 scale, so that one unit is a factor of ten. As usually defined, the fraction unbound is the share of the substance not bound to proteins or other matrix. As usually defined, the solubility is the dissolved amount per volume that the medium holds. A lower solubility goes with a poorly soluble substance. A word on the logD: it is the decadic logarithm of the distribution of all forms, ionised or not, between an organic phase and buffer at a given pH. What is called clearance is the volume of plasma or blood freed of the substance per unit of time. As a reminder, the bioavailability is dose-corrected exposure relative to a reference, in per cent. A higher bioavailability goes with good availability. The AUC is concentration integrated over time.

The target in series [1] is Cyclin-dependent kinase 2 (Homo sapiens, UniProt P24941). In words: Inhibition of CDK2/Cyclin E.
The subject of a further series is MCF7. Put plainly: cells. Particulars: Homo sapiens, MCF7, 48 h.
The nature of series [2]: Protein binding in rat plasma assessed as unbound fraction. In kind it is ADME, cell-free.
Series [3] in a line: Aqueous solubility at pH 7.4. Particulars: buffer.
Series [4] is described as follows: Lipophilicity Log D at pH 7.4. The note with it: buffer.
A short description of series [5]: Plasma clearance in dog. In kind it is ADME, organism-based, Canis lupus familiaris.
For series [6], the system named is SW-620. Put plainly: animal or person. Particulars: Mus musculus, SW-620, po, 672 h, read-out: INH.
Description: Antitumor activity against human SW620 cells xenografted nude mouse assessed as tumor growth inhibition at 12.5 mg/kg, po once daily for 28 days
A short description of series [7]: Oral bioavailability in dog. In kind it is ADME, organism-based, Canis lupus familiaris. The note with it: in vivo.
Series [8] can be described thus: AUC in rat at 2 mg/kg, po. The note with it: plasma. It counts as ADME, organism-based. On the set-up: dose 2 mg/kg, route oral.
Series [9] in a line: Plasma clearance in rat. In kind it is ADME, organism-based.
Series [10] can be described thus: Volume of distribution at steady state in rat. The note with it: in vivo, read-out: Vdss. In kind it is ADME, organism-based.
Series [11] in a line: Oral bioavailability in rat. In kind it is ADME, organism-based. Particulars: in vivo.
Series [12] is described as follows: Volume of distribution at steady state in dog. It counts as ADME, organism-based, Canis lupus familiaris. Particulars: in vivo, read-out: Vdss.
Series [13] addresses Voltage-gated inwardly rectifying potassium channel KCNH2 (Homo sapiens, UniProt Q12809).
Series [14] concerns SW-620. In words: Antitumor activity against human SW620 cells xenografted nude mouse assessed as tumor growth inhibition at 7.5 mg/kg, po once daily for 28 days. The note with it: SW-620, po, 672 h, read-out: INH. In general terms: A xenograft is tissue or cells of one species grown in another, often human tumour cells in immunodeficient mice.

pIC50: −log10 of the molar value. Values after ≈ are worked out from the molar mass of the structure shown. Bounds are passed on as bounds.

Voltage-gated inwardly rectifying potassium channel KCNH2, sequence (Q12809 whole entry): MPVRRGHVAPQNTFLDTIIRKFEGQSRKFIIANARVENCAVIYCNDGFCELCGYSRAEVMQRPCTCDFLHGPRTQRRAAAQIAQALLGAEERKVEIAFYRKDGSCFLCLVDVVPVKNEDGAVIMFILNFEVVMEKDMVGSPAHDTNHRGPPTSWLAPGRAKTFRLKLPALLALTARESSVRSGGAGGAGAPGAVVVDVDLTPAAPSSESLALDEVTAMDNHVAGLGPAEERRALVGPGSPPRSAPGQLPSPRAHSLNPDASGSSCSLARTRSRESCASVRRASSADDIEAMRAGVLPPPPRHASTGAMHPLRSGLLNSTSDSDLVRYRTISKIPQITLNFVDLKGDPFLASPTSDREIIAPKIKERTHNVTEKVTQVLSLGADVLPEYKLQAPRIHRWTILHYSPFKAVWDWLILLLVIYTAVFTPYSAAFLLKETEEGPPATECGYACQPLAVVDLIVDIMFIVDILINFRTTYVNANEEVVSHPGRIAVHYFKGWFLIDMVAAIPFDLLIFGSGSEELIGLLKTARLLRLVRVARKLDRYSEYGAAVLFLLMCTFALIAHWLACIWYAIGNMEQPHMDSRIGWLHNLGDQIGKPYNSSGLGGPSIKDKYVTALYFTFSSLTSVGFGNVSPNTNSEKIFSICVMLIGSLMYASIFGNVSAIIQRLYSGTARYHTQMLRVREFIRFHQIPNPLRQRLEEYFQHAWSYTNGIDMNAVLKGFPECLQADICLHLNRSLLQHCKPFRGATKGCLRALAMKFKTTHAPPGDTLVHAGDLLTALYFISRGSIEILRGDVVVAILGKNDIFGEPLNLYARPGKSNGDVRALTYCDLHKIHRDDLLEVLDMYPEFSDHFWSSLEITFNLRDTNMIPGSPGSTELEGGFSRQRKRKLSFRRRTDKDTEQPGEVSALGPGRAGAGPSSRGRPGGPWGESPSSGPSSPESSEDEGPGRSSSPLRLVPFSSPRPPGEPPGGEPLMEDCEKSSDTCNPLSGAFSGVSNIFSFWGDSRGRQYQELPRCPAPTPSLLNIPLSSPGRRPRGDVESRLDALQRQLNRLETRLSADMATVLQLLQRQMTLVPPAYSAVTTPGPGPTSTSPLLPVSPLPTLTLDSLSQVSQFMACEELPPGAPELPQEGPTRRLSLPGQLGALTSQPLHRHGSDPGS
Description for MCF7: Antiproliferative activity against human MCF7 cells after 48 hrs

In the case of `Cc1ncc(-c2ccnc(Nc3ccc(C#N)cc3)n2)n1C(C)C`, the pIC50 in series [1] was greater than 8.52; in the series on MCF7, 7.15.

Regarding `Cc1ncc(-c2nc(Nc3ccc(N4CCC[C@H]4C(=O)N(C)C)cc3)ncc2F)n1C(C)C`, in series [1], the negative-log IC50 (pIC50) was 7.34.

With `Cc1ncc(-c2ccnc(Nc3ccc(N(C)C)cc3)n2)n1C(C)C`, the pIC50 in series [1] is 7.62; in the series with MCF7, 7.17.

As to `CC(=O)NC1CN(c2ccc(Nc3ncc(F)c(-c4cnc(C)n4C(C)C)n3)cc2)C1`, in series [2], the fraction unbound is 0.05. In addition, the concentration in solution in series [3] (solubility) came to 120 µM (≈ 50.8 µg/mL). Besides, the pIC50 in series [1] is 9.30. The compound further showed a logD in [4] of 2.8.

For `CC(=O)N[C@@H]1CCN(c2ccc(Nc3ncc(F)c(-c4cnc(C)n4C(C)C)n3)cc2)C1`, the pIC50 is less than 9.52 in [1] and 6.85 in the series on MCF7.

As to `Cc1ncc(-c2nc(Nc3ccc(N4CCN(C(=O)CO)CC4)cc3)ncc2F)n1C(C)C`, the clearance in series [5] turned out to be 1.44 L/h/kg; in series [9], 0.96 L/h/kg. In addition, the solubility in series [3] came to 160 µM (≈ 72.6 µg/mL). For the same compound, the values for the pIC50 (in series [1]; with MCF7) were 8.22 and 7.12, respectively. In the series with SW-620 [6], the inhibition in vivo at 12.5 mg/kg came out at 89%. Further, the bioavailability in [7] was 31%; in series [11], 67%. This compound gave a logD in series [4] of 2.2. The compound further yielded an AUC in series [8] of 170 nM·h. The Vd in series [10] is 1 L/kg; in [12], 3.5 L/kg.

For the compound `Cc1ncc(-c2ccnc(Nc3ccc(N4CCN(S(C)(=O)=O)CC4)cc3)n2)n1C(C)C`, the fraction unbound in series [2] turned out to be 0.08. In addition, the solubility in series [3] is 9 µM (≈ 4.1 µg/mL). For the same compound, the pIC50 in series [1] was greater than 8.52; in series [13] it was 5.26; in the series on MCF7, 7.14. The logD in series [4] was 2.6. The compound also came in with an exposure (AUC) in [8] of 80 nM·h.

Turning to `CC(=O)N1CCN(c2ccc(Nc3nccc(-c4cnc(C)n4C(C)C)n3)cc2)CC1`, the pIC50 in series [1] is greater than 8.52; in the series with MCF7 it was 6.84.

With `Cc1ncc(-c2ccnc(Nc3ccc(N4CCN(S(=O)(=O)CCN(C)C)CC4)cc3)n2)n1C(C)C`, the pIC50 in series [1] was 8.52; in series [13] it was 4.74; in the series with MCF7, greater than 7.41. Further, the logD in series [4] was determined as 2.5.

With `Cc1ncc(-c2ccnc(Nc3ccc(N4CCN(C(=O)CO)CC4)cc3)n2)n1C(C)C`, the clearance stood at 1.14 L/h/kg in series [5] and 0.9 L/h/kg in series [9]. Further, in [2], the fraction unbound is 0.22. Further, the bioavailability was 79% in series [7] and 59% in [11]. The AUC in [8] was found to be 400 nM·h. Also, the Vd in [10] came to 2.5 L/kg; in series [12] it was 3.4 L/kg. Besides, the inhibition in vivo at 7.5 mg/kg with SW-620 [14] turned out to be 80%.

`Cc1ncc(-c2ccnc(Nc3ccc(N4CCN(C(=O)CN(C)C)CC4)cc3)n2)n1C(C)C`: the fraction unbound in series [2] came to 0.4. In [3], this compound had a solubility greater than 3400 µM. Also, the results for the pIC50 (in series [1]; in series [13]; with MCF7) were 7.80, less than 4.49 and greater than 7.57, respectively. For the same compound, in series [4], the logD came to 3.3.

For the compound `CCN(CC)CC(=O)N1CCN(c2ccc(Nc3nccc(-c4cnc(C)n4C(C)C)n3)cc2)CC1`, the solubility in [3] is greater than 3700 µM. The pIC50 with MCF7 is greater than 7.66.

For `Cc1ncc(-c2ccnc(Nc3ccc(F)cc3)n2)n1C(C)C`, the pIC50 is 8.52 in [1] and 7.00 in the series with MCF7.

Consider `Cc1ncc(-c2ccnc(Nc3ccc(Cl)cc3)n2)n1C(C)C`, for which the pIC50 in [1] is greater than 8.52; in the series on MCF7, 7.14.

Compound `COCCNS(=O)(=O)c1ccc(Nc2nccc(-c3cnc(C)n3C(C)C)n2)cc1` showed a negative logarithm of the IC50 (pIC50) with MCF7 of 7.35.

`COc1ccc(Nc2nccc(-c3cnc(C)n3C(C)C)n2)cc1`: the pIC50 in [1] is 8.10; in the series on MCF7 it was 7.14.

With `COCCS(=O)(=O)N1CCN(c2ccc(Nc3nccc(-c4cnc(C)n4C(C)C)n3)cc2)CC1`, the pIC50 was greater than 8.52 in series [1] and 7.03 in the series with MCF7.

On to `Cc1ncc(-c2ccnc(Nc3ccc(N4CCOCC4)cc3)n2)n1C(C)C`, for which the concentration in solution in [3] (solubility) came to 56 µM (≈ 21.2 µg/mL). Moreover, the figures for the pIC50 (in series [1]; in the series on MCF7) were 8.05 and 6.54, respectively. In series [4], this compound returned a logD of 2.9. The same compound had an AUC in series [8] of 160 nM·h.

`Cc1ncc(-c2nc(Nc3ccc(N4CCOCC4)cc3)ncc2F)n1C(C)C`: the clearance in [5] was determined as 8.4 L/h/kg; in series [9] it was 1.56 L/h/kg. Also, the solubility in series [3] was 120 µM (≈ 47.6 µg/mL). In addition, the pIC50 was 8.10 in [1], 4.96 in series [13] and 6.96 in the series on MCF7. Further, the values for the bioavailability in [7] and in series [11] were 3% and 34%, respectively. Further, the logD in [4] stood at 3. In series [8], the AUC amounted to 190 nM·h. Also, the results for the Vd in [10] and in [12] were 1.3 L/kg and 2.9 L/kg, respectively.

Consider `Cc1ncc(-c2ccnc(Nc3ccc(N4CCN(C(=O)[C@H](C)O)CC4)cc3)n2)n1C(C)C`, for which the pIC50 in [1] was 7.77; in series [13], less than 4.62; in the series with MCF7, 6.66. In addition, the AUC in series [8] came to 160 nM·h.
